2 molecules from patent US9745299B2, “Substituted tricyclic benzimidazoles as kinase inhibitors” (SELVITA SA, priority 2012, dated 2017) can be followed below.

Counter-ions that a name gives are not always drawn.

By IC50 is commonly meant the point on the concentration scale where inhibition reaches its midpoint.

One data set deals with SK-MEL5 melanoma. In words: Cytotoxic effects, SK-MEL5. In kind it is cell-based, human.
A further data set deals with Rec-1 B-cell lymphoma. Kind of data set: Cytotoxic effects, Rec-1. The format is cell-based, human.
The target in another data set is T1, CDK2/CyclinE (Homo sapiens, UniProt P24941).
T1 construct: purchased Millipore, Billerica, Mass., USA
In words: ADP-Glo Kinase Assay, CDK2/CyclinE. In kind it is biochemical. Conditions: read-out: % inhibition at 1 μM CDK2/CyclinE. An outline of the steps: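 ADP-Glo luminescent ADP detection measured kinase activity: remaining ATP depleted, ADP converted to ATP for luciferase read-out.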
(ADP-Glo first removes unused ATP, then detects ADP through luciferase.)

A further data set has as its system A549 lung carcinoma. In words: Cytotoxic effects, A549. The format is cell-based, human.
Another data set concerns SW480 cells. Kind of data set: MTS viability assay, SW480. The format is cell-based. The note with it: Homo sapiens, SW480, 72 hour incubation, read-out: IC50 [μM] SW-480 ED50. An outline of the steps: (§1)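 Colon cancer lines, 10,000-20,000 cells/well in DMEM with 10% FBS, were treated with serially diluted compound for 72 h at 37 °C, 5% CO2. Viability came from MTS tetrazolium reduction after 2 h further incubation, read as absorbance at 490 nm.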
(In general: Tetrazolium assays rely on reduction of a dye to a coloured formazan, in cell work by metabolically active cells.)

Data set [1] has as its system MV4-11 acute myelocytic leukemia (AML). In words: Cytotoxic effects, MV4-11. In kind it is cell-based, human.
The test system of data set [2] is PC-3 adenocarcinoma prostate. In words: Cytotoxic effects, PC-3. The format is cell-based, human.
The subject of a further data set is HCT116 tumor. Kind of data set: HCT116 xenograft tumor growth in NOD/SCID mice. In kind it is in vivo. The note with it: oral administration, 30 mg/kg. The method, then: The substituted Tricyclic Benzimidazoles of the present invention are useful as anti-cancer agents due to their ability to reduce tumor growth in vivo in mammals. Various well-accepted animal models exist for cancer. By way of example, antitumor activity can be evaluated in vivo in murine xenograft models. Briefly, female mice, NOD/SCID, 5-6 weeks old, were used for the study. On the 1st experimental day, 5*10^6 HCT116 cells were suspended in 0.1 ml 0.9% NaCl+Matrigel® (BD Biosciences) (1:1, v:v) and were injected subcutaneously, on the right side just above the groin. As the tumor growth was progressing, the tumor size was measured every day, and the tumor volume was computed from the formula: TV=(a*a*b)/2 in mm3, where a is the short axis in mm, and b is the long axis in mm. When the average tumor volume reached and exceeded 100 mm3, mice were randomized into uniform groups and subjected to the compound administrations. The administration of the compound was performed and continued according to the experimental schedule.
The tumor volume was monitored throughout the study and the tumor growth inhibition (TGI) was computed using the following formula: TGI [%]=((Av Norm TGC−Av Norm TGT)/Av Norm TGC)×100, where Av Norm TGC is the mean (average) normalized tumor growth of the control group, and Av Norm TGT is the mean (average) normalized tumor growth of the treated group. […]

For another data set, the system named is HCT116 cells. In words: MTS viability assay, HCT116. In kind it is cell-based. The note with it: Homo sapiens, HCT-116, HCT116, 72 hour incubation, read-out: IC50 [μM] HCT116 ED50. An outline of the steps:
as §1

The next data set concerns the target T2, CDK1/CyclinB (Homo sapiens, UniProt P06493).
T2 construct: purchased Millipore, Billerica, Mass., USA
Kind of data set: ADP-Glo Kinase Assay, CDK1/CyclinB. Note: ATP at apparent Km (20 µM). Conditions: read-out: % inhibition at 1 μM CDK1/CyclinB. In kind it is biochemical. Here is the method: Testing of the compounds described in this invention was carried out using the ADP-Glo™ Kinase Assay from Promega Corporation (Madison, Wis., USA). […] The ADP-Glo™ Kinase Assay is a luminescent ADP detection assay to measure kinase activity by quantifying the amount of ADP produced during a kinase reaction. The kinase assay is performed in kinase assay buffer (5 mM MOPS, pH 7.5, 5 mM MgCl2, 0.4 mM EDTA, 1.5 mM DTT). Test samples initially dissolved in DMSO at 10 mM were diluted with the assay buffer to 1000 nM. A 30 μL volume/well of a mixture of substrates containing ATP (final ATP concentration in each kinase assay was equal to its apparent ATP Km). […] The assay was performed in two steps: first, after the kinase reaction, an equal volume of ADP-Glo™ Reagent was added to terminate the kinase reaction and deplete the remaining ATP. Second, the Kinase Detection Reagent was added to simultaneously convert ADP to ATP and allowed the newly synthesized ATP to be measured using a luciferase/luciferin reaction. The luminescent signal generated was proportional to the ADP concentration produced and was correlated with kinase activity.

T2 sequence (P06493 whole entry): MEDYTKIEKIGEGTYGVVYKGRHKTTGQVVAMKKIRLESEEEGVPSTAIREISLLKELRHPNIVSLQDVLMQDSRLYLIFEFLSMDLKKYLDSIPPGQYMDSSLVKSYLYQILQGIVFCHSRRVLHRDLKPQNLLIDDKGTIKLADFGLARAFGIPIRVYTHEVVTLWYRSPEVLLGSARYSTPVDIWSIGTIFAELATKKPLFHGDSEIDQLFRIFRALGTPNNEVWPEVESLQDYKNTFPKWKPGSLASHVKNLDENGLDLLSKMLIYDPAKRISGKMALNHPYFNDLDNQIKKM
T2 sequence (P14635 whole entry partner): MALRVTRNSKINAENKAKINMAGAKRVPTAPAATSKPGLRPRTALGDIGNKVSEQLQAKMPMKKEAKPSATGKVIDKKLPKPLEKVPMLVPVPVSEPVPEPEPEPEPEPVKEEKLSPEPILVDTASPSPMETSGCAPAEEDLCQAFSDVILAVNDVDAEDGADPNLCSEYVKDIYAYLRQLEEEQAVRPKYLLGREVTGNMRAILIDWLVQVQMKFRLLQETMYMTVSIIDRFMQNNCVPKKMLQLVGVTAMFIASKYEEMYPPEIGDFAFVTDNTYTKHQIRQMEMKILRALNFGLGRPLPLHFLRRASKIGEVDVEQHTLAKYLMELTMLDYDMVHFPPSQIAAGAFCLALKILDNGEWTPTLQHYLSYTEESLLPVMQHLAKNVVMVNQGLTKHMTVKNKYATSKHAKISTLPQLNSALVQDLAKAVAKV

In the case of `Cc1c(Br)c(Br)c2c3c1nc(N1CCNCC1)n3CCC2` [Example 1K], the cytotoxic effects entry (in the data set with SK-MEL5 melanoma; in the data set with Rec-1 B-cell lymphoma; in the data set with A549 lung carcinoma; in data set [1]; in [2]) was “showed cytotoxic effects” throughout. Besides, the inhibition at 1 µM on CDK2/CyclinE and on CDK1/CyclinB was 0% throughout. In addition, the half-inhibitory concentration (IC50) was found to be 1.1 µM in the data set on SW480 cells and 0.7 µM in the data set on HCT116 cells. Also, the “HCT116 tumor growth (FIG. 1)” value in the data set on HCT116 tumor was “Inhibition of HCT116 tumor growth”.

Consider `Brc1c(Br)c2c3c(nc(N4CCNCC4)n3CCC2)c1Br` [Example 6, 7,8,9-tribromo-2-(piperazin-1-yl)-5,6-dihydro-4H-imidazo[4,5,1-ij]quinoline maleate], for which the cytotoxic effects entry (in the data set with SK-MEL5 melanoma; in the data set on Rec-1 B-cell lymphoma; in the data set with A549 lung carcinoma; in data set [1]; in data set [2]) was “showed cytotoxic effects” throughout. Moreover, the inhibition at 1 µM at CDK2/CyclinE stood at 0%; at CDK1/CyclinB, 38%. In addition, the IC50 with SW480 cells was determined as 1 µM; in the data set with HCT116 cells, 0.4 µM. Also, the “HCT116 tumor growth (FIG. 1)” value in the data set with HCT116 tumor is on record as “Inhibition of HCT116 tumor growth”.
